Measured values as given in PubChem BioAssay AID256 (DTP/NCI, 2004).
Where “and” joins values, the source holds several entries; their conditions need not be identical. Equal values may be shown once. Toxic doses and inconclusive results are not listed. How the source made its calls: active means survival T/C of 150% or more; inactive means T/C below 125% in these data.

Tested on: CD2F1 mice, L1210 leukemia ip, survival T/C
Test: NCI In Vivo Anticancer Drug Screen. Data for tumor model L1210 Leukemia (intraperitoneal) in CD2F1 (CDF1) mice
Conditions: endpoint: mean survival time, higher = longer survival
In short: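 Tumor-bearing mice (transplanted tumor) were split into treated and vehicle control groups, and the measured endpoint of each treated group was divided by that of its vehicle controls.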

[1] = dose: 100.0 mg/kg/injection, schedule: Q04DX003 (ip), vehicle: saline with Tween-80
[2] = dose: 200.0 mg/kg/injection, schedule: Q04DX003 (ip), vehicle: saline with Tween-80
[3] = dose: 400.0 mg/kg/injection, schedule: Q04DX003 (ip), vehicle: saline with Tween-80
[4] = dose: 50.0 mg/kg/injection, schedule: Q01DX009 (ip), vehicle: saline with Tween-80
[5] = dose: 100.0 mg/kg/injection, schedule: Q01DX009 (ip), vehicle: saline with Tween-80
[6] = dose: 200.0 mg/kg/injection, schedule: Q01DX009 (ip), vehicle: saline with Tween-80
[7] = dose: 100.0 mg/kg/injection, schedule: Q04DX003 (ip), vehicle: Klucel (hydroxypropylcellulose) (HPC)
[8] = dose: 200.0 mg/kg/injection, schedule: Q04DX003 (ip), vehicle: Klucel (hydroxypropylcellulose) (HPC)

Measured: T/C

CC(C)OC(=O)Nc1ccc(F)c(C(F)(F)F)c1
inactive: [1] 96 % of control | [2] 96 % of control | [3] 94 % of control

O=C(OC1C=CC2CCC1C2)c1ccc([N+](=O)[O-])cc1 (centres undefined)
inactive: [4] 98 % of control | [5] 94 % of control | [1] 87 % of control | [6] 93 % of control | [2] 87 % of control

N#CC1c2ccccc2C=CN1C(=O)OCC(Cl)(Cl)Cl (centres undefined)
inactive: [7] 102 % of control | [8] 102 % of control | dose: 400.0 mg/kg/injection, schedule: Q04DX003 (ip), vehicle: Klucel (hydroxypropylcellulose) (HPC) 103 % of control

CC1CN(c2ccccc2)NC1=O (centres undefined)
inactive: dose: 100.0 mg/kg/injection, schedule: Q01DX009 (ip), vehicle: saline 104 % of control | dose: 200.0 mg/kg/injection, schedule: Q01DX009 (ip), vehicle: saline 105 % of control | dose: 400.0 mg/kg/injection, schedule: Q01DX009 (ip), vehicle: saline 102 % of control

Cc1ccc(S(=O)(=O)Nc2ccc(I)cc2)cc1
inactive: [4] 94 % of control | [5] 97 % of control | [1] 92 % of control | [6] 95 % of control | [2] 94 % of control | [3] 86 % of control

O=[N+]([O-])c1cc(C2CCCCC2)c(O)c([N+](=O)[O-])c1
inactive: dose: 5.0 mg/kg/injection, schedule: Q01DX009 (ip), vehicle: saline with Tween-80 98 % of control | dose: 10.0 mg/kg/injection, schedule: Q01DX009 (ip), vehicle: saline with Tween-80 93 % of control | dose: 20.0 mg/kg/injection, schedule: Q01DX009 (ip), vehicle: saline with Tween-80 89 % of control

Cc1cc(C)c(C(=O)CCCC(=O)O)c(C)c1
inactive: [1] 94 % of control | [2] 92 % of control

CCS(=O)(=O)C(CCC#N)(CCC#N)S(=O)(=O)CC
inactive: dose: 100.0 mg/kg/injection, schedule: Q01DX001 (ip), vehicle: saline 95 % of control | dose: 200.0 mg/kg/injection, schedule: Q01DX001 (ip), vehicle: saline 103 % of control

CCCc1cc(C(C)=O)c[n+](C2OC(COC(=O)c3ccccc3)C(OC(=O)c3ccccc3)C2O)c1 (centres undefined)
inactive: dose: 3.13 mg/kg/injection, schedule: Q01DX005 (ip), vehicle: distilled water + Tween-80 109 % of control | dose: 6.25 mg/kg/injection, schedule: Q01DX005 (ip), vehicle: distilled water + Tween-80 92 % of control | dose: 12.5 mg/kg/injection, schedule: Q01DX005 (ip), vehicle: distilled water + Tween-80 93 % of control | dose: 25.0 mg/kg/injection, schedule: Q01DX005 (ip), vehicle: distilled water + Tween-80 89 % of control | dose: 50.0 mg/kg/injection, schedule: Q01DX005 (ip), vehicle: distilled water + Tween-80 90 % of control and 97 % of control

Cc1ccc(CNc2cccnc2)cc1
inactive: [1] 98 % of control | [2] 93 % of control | [3] 95 % of control

CN(C)C=NC1=NN(C)c2ncnc3c2c1cn3C1OC(CO)C(O)C1O (centres undefined)
inactive: dose: 12.5 mg/kg/injection, schedule: Q01DX009 (ip), vehicle: water 101 % of control | dose: 25.0 mg/kg/injection, schedule: Q01DX009 (ip), vehicle: water 95 % of control | dose: 50.0 mg/kg/injection, schedule: Q01DX009 (ip), vehicle: water 95 % of control | dose: 100.0 mg/kg/injection, schedule: Q01DX009 (ip), vehicle: other 108 % of control | dose: 100.0 mg/kg/injection, schedule: Q01DX009 (ip), vehicle: water 103 % of control | dose: 200.0 mg/kg/injection, schedule: Q01DX009 (ip), vehicle: other 104 % of control | dose: 200.0 mg/kg/injection, schedule: Q01DX009 (ip), vehicle: water 110 % of control | dose: 400.0 mg/kg/injection, schedule: Q01DX009 (ip), vehicle: other 115 % of control

CC12CCC(=O)C=C1CCC1C2CCC2(C)C1CCC2(O)C(=O)Cn1c(=O)[nH]cc(F)c1=O (centres undefined)
inactive: dose: 12.5 mg/kg/injection, schedule: Q04DX003 (ip), vehicle: Klucel (hydroxypropylcellulose) (HPC) 93 % of control | dose: 25.0 mg/kg/injection, schedule: Q04DX003 (ip), vehicle: Klucel (hydroxypropylcellulose) (HPC) 96 % of control | dose: 50.0 mg/kg/injection, schedule: Q04DX003 (ip), vehicle: Klucel (hydroxypropylcellulose) (HPC) 93 % of control | [7] 100 % of control | [8] 96 % of control

CC(=O)C(=O)C(C)=O
inactive: [1] 94 % of control | [2] 91 % of control | [3] 105 % of control

CCCCCCN(CCCCCC)CP(=O)(CN(CCCCCC)CCCCCC)CN(CCCCCC)CCCCCC
inactive: dose: 100.0 mg/kg/injection, schedule: Q01DX001 (ip), vehicle: saline with Tween-80 95 % of control | dose: 200.0 mg/kg/injection, schedule: Q01DX001 (ip), vehicle: saline with Tween-80 104 % of control | dose: 400.0 mg/kg/injection, schedule: Q01DX001 (ip), vehicle: saline with Tween-80 104 % of control
